From publication PMC12040169 (PLOS Biology, 2025)

Assay: in vitro
Settings: human, hela cells, % viability

| SMILES | viability at 28.5 h, 10 µM [%] |
| --- | --- |
| CC(C)(C)OC(=O)N1CCC(C(=O)NCc2ccccn2)CC1 [CBK305696] | 103 |
| CCOC(=O)N1CCC(NS(=O)(=O)c2cn(C)c(=O)n(C)c2=O)CC1 [CBK305699] | 89.1 |
| CCN(Cc1ccc(C#N)cc1F)C(=O)Nc1cnn(CC)c1 [CBK305702] | 93.1 |
| COCCn1c(SCc2cn3cc(Br)ccc3n2)nc(C)c1C [CBK305704] | 83.1 |
| CCCCc1nc(CS(=O)(=O)C(C)c2nc(C(C)C)no2)cs1 (centres unmarked) [CBK305707] | 88.3 |
| Cc1cc(C)n(CCCNC(=O)Cc2csc(N3CCCC3=O)n2)n1 [CBK305708] | 94.6 |
| COC(=O)c1cc(C#N)c(=O)n(CC(O)COc2c(C)cccc2C)c1 (centres unmarked) [CBK305709] | 97.2 |
| Cc1cc(N2CCN(C(=O)CCc3ccccc3)CC2)nc(C(C)C)n1 [CBK305711] | 99.3 |
| COc1ccc(CN2CCN(C(=O)c3cccc(N(C)C)c3)CC2)cc1 [CBK305713] | 98 |
| C#CCNS(=O)(=O)c1cccc(C(=O)NC2CCN(CCOC)CC2)c1 [CBK305714] | 89 |
| COC(=O)c1cc(C#N)c(=O)n(CC(O)COCc2ccco2)c1 (centres unmarked) [CBK305718] | 94.7 |
| COc1ccc(C(=O)N2CCN(c3cnn(C)c(=O)c3Cl)CC2)cc1 [CBK305720] | 84.8 |
| Cn1cc(C(=O)OCc2cccc(S(=O)(=O)N3CCOCC3)c2)cn1 [CBK305721] | 88.1 |
| Cc1cc(C)cc(C(=O)N2CCC(NC(=O)c3cnn(C)c3)CC2)c1 [CBK305723] | 92.3 |
| Cc1cc(N2CCOCC2)ccc1NC(=O)CCOc1cccc(Cl)c1 [CBK305724] | 102 |
| CCc1nc(COC(=O)C2CCN(C(=O)c3ccc(F)cc3)CC2)cs1 [CBK305725] | 111 |
| O=C(NCCNc1cnccn1)c1cccc(Cl)c1Cl [CBK305727] | 84.9 |
| CC(=O)Nc1ccc(C(=O)NCc2ccc(OCC(F)(F)F)cc2)cc1 [CBK305732] | 98 |
| COC(=O)c1ccc(N2CCN(Cc3nc(C4CC4)no3)C(C)C2)cc1 (centres unmarked) [CBK305744] | 98 |
| CN(CCCc1cc(-c2cccc(F)c2)n[nH]1)C(=O)c1cnn(C)c1 [CBK305745] | 86.6 |
| CCc1ccc(CNC(=O)NC2CCCc3c2cnn3CCO)s1 (centres unmarked) [CBK305747] | 84.4 |
| CC(Oc1cccc(C#N)c1)C(=O)N1CCSCC1 (centres unmarked) [CBK305748] | 97 |
| CC(C)Oc1ncc(C(=O)Nc2ccc(OCCC(N)=O)cc2)cc1Cl [CBK305750] | 102 |

| SMILES | viability at 28.5 h, 10 µM [%] |
| --- | --- |
| Cc1noc(C)c1CN1CCC(Cc2ccccc2)CC1 [CBK305752] | 96.8 |
| Cc1nc(CNCc2c(C)nn(C)c2N2CCOCC2)cs1 [CBK305753] | 83.7 |
| Cc1cccc(NCC2CCN(Cc3cc(=O)n4ccccc4n3)C2)n1 (centres unmarked) [CBK305756] | 100 |
| COCCN(C(=O)c1ccc2ccccc2c1)C1CCS(=O)(=O)C1 (centres unmarked) [CBK305758] | 102 |
| Cc1cc(C2CCCN2C(=O)c2ccc(C(F)(F)F)nc2)on1 (centres unmarked) [CBK305761] | 88.6 |
| Cc1ccc(Cl)c(OC(C)C(=O)N2CCC(CC(N)=O)CC2)c1 (centres unmarked) [CBK305762] | 93 |
| Cc1csc(C2CN(Cc3ccn(C)c(=O)c3)CCO2)n1 (centres unmarked) [CBK305763] | 91.4 |
| Cc1cccn2c(=O)cc(CN3CCC(c4cn[nH]c4)CC3)nc12 [CBK305764] | 101 |
| Cc1nc(S(=O)(=O)N2CCC(C(=O)N3CCCCCC3)CC2)cn1C [CBK305765] | 99.3 |
| CC(C)(C)OC(=O)N1CCCC(C(=O)NC(C(N)=O)c2ccccc2)C1 (centres unmarked) [CBK305766] | 99.8 |
| CCN(Cc1cccs1)C(=O)NC1CCCc2c1cnn2CCO (centres unmarked) [CBK305768] | 81.6 |
| CCOc1ccc(C(=O)N2CC(C(N)=O)CCC2C)cn1 (centres unmarked) [CBK305770] | 102 |
| CC1CCc2c(sc3ncnc(OCC(=O)N4CCNC4=O)c23)C1 (centres unmarked) [CBK305775] | 96.1 |
| Cc1cccc(CN2CCC(NC(=O)C3(C#N)CCCC3)CC2)c1 [CBK305781] | 91.8 |
| O=C(CCc1cc(F)ccc1F)NCCCn1nc2n(c1=O)CCCC2 [CBK305782] | 97.7 |
| Cc1nc(S(=O)(=O)N2CCC(C(=O)N3CCCC3)CC2)cn1C [CBK305786] | 88.3 |
| CC1CCN(C(=O)CC(NC(N)=O)c2cccc(Br)c2)CC1 (centres unmarked) [CBK305788] | 95.3 |
| CCn1c(C)cc(C(=O)N2CCN(c3nccc(OC)n3)CC2)c1C [CBK305791] | 95.5 |
| Cc1nn(C)c2ncc(S(=O)(=O)NC(C)c3ccc(F)cc3)cc12 (centres unmarked) [CBK305793] | 93.4 |
| COc1ccc(Cl)cc1CN(C)C(=O)c1ccc(C)[nH]c1=O [CBK305794] | 92.9 |
| Cc1nc(CCNC(=O)C2CC(c3cccc(F)c3)=NO2)cs1 (centres unmarked) [CBK305798] | 106 |
| CC(=O)Nc1ccc(NCc2nc(CC(C)C)no2)c(C(F)(F)F)c1 [CBK305799] | 110 |
| COc1ccnc(N2CCN(C(=O)c3ccc(C)n3C)CC2)n1 [CBK305803] | 84.7 |

| SMILES | viability at 28.5 h, 10 µM [%] |
| --- | --- |
| CC1CCCN(C(=O)CC(NC(N)=O)c2cccc(Br)c2)CC1 (centres unmarked) [CBK305804] | 91.7 |
| O=C1CN(c2nc(-c3ccncc3)nc3ccccc23)CCN1 [CBK305805] | 91.9 |
| Cc1ccc(CCC(=O)N(CCC#N)C2CCOCC2)c(C)c1 [CBK305809] | 87.4 |
| CC1CCC(C(N)=O)CN1C(=O)c1csc(Br)c1 (centres unmarked) [CBK305812] | 92.3 |
| Cc1nc2n(c1C)CCN(c1ccc3nnc(C(F)(F)F)n3n1)C2 [CBK305815] | 102 |
| Cc1cc(C#N)ccc1OCC(=O)NC1CCS(=O)(=O)C1 (centres unmarked) [CBK305816] | 84.9 |
| COC(=O)c1cccn2cc(CN(CC#N)C3CC3)nc12 [CBK305821] | 105 |
| Cc1noc(C)c1CC(=O)NCc1cccc(C#N)c1 [CBK305822] | 106 |
| Cc1cc(=O)n2ncn(CC(=O)NCCOc3ccccc3)c2c1 [CBK305823] | 99.3 |
| CNS(=O)(=O)c1cccc(C(C)NC(=O)N2CCSCC2)c1 (centres unmarked) [CBK305825] | 95.1 |
| Cc1ccc(NCC2CCN(c3cc(=O)n4oc(C)cc4n3)C2)nc1 (centres unmarked) [CBK305827] | 90.1 |
| Cc1nc(C)n(CC2CCCN(Cc3nc4ccccc4o3)C2)n1 (centres unmarked) [CBK305828] | 95.3 |
| CN(Cc1ccccc1N1CCOCC1)C(=O)Cc1cn2ccsc2n1 [CBK305830] | 109 |
| COCCn1c(SC(C)C(=O)N2CCNC2=O)nc2ccccc21 (centres unmarked) [CBK305832] | 85.7 |
| COc1ccc(-c2nn(CCC#N)cc2C(=O)N2CCCCC2)cc1 [CBK305834] | 92.4 |
| COc1cccc(-c2nn(CCC#N)cc2C(N)=O)c1 [CBK305835] | 95 |
| CCN(CC(=O)NCc1ccc(F)cc1)S(=O)(=O)c1ccc(Cl)s1 [CBK305837] | 88.2 |
| Cc1nc2ncnn2c(C)c1CCC(=O)OCc1ccc(C#N)cc1 [CBK305838] | 83.7 |
| CCN(CC(=O)NCc1ccc(F)cc1)C(=O)c1ccc(C#N)cc1 [CBK305841] | 100 |
| CCN(CC)S(=O)(=O)c1ccc(C(=O)NCc2ccc(OC)cc2)cc1 [CBK305844] | 71.6 |
| CCCNC(=O)CN(C)CC(=O)Nc1sc2c(c1C#N)CCC(C)C2 (centres unmarked) [CBK305845] | 82.5 |
| CC(Nc1ccc(N2CCOCC2)cc1)C(=O)Nc1cccc(C#N)c1 (centres unmarked) [CBK305846] | 82.2 |
| CC(C)Oc1ccc(C(=O)N2CCN(c3ccccc3)CC2)cc1 [CBK305847] | 83.5 |

| SMILES | viability at 28.5 h, 10 µM [%] |
| --- | --- |
| Cc1nn(C)c(C)c1NC(=O)COc1ccccc1C#N [CBK305850] | 95 |
| O=C(CSc1ccc(Cl)cc1)Nc1ccc(CN2CCOCC2)cc1 [CBK305855] | 89 |
| Cc1nc2nc(N)nn2c(C)c1CCC(=O)NCc1ccccc1F [CBK305860] | 77.6 |
| CCNc1nc(-c2ccc3c(c2)CCCN3S(C)(=O)=O)cs1 [CBK305861] | 89.8 |
| CCOC(=O)c1sc2nc(C(C)N3CCOCC3)[nH]c(=O)c2c1C (centres unmarked) [CBK305862] | 82.5 |
| CC(=O)Nc1ccc(-c2csc(N3CCN(C)CC3)n2)cc1 [CBK305865] | 93.6 |
| COc1ccccc1CN(Cc1cccs1)C(=O)Cn1cnnn1 [CBK305866] | 96.5 |
| Cc1cc(C(=O)CSc2nc3cc(Cl)cnc3[nH]2)c(C)n1C1CC1 [CBK305867] | 79.5 |
| CC(=O)Nc1cccc(C(=O)OCC(=O)N2CCCCC2C)c1 (centres unmarked) [CBK305868] | 76.6 |
| CCOC(=O)N1CCN(S(=O)(=O)c2ccc3oc(=O)ccc3c2)CC1 [CBK305870] | 82.6 |
| O=C(c1cccs1)N1CCN(Cc2cc(=O)n3ccsc3n2)CC1 [CBK305872] | 119 |
| COc1ccccc1CN(C)C(C)C(=O)Nc1ccc(NC(C)=O)cc1 (centres unmarked) [CBK305873] | 100 |
| CCCCn1c(SC(C)C(N)=O)nc2cc(C(=O)OC)ccc2c1=O (centres unmarked) [CBK305877] | 84 |
| CCn1cnnc1CNC(=O)N1CCCN(Cc2cccs2)CC1 [CBK305882] | 97.6 |
| CCOC(=O)N1CCN(Cc2ccc(OCc3cccnc3)cc2)CC1 [CBK305883] | 79.1 |
| CCOC(=O)C1CSCCN1C(=O)c1cc(C)n(-c2nccs2)c1C (centres unmarked) [CBK305884] | 75 |
| Cc1cc(C)n2ncc(C(=O)N3CCCC3c3ccc(F)cc3)c2n1 (centres unmarked) [CBK305885] | 82.9 |
| Cn1nc(C(=O)NCC(c2ccccc2Cl)N2CCOCC2)ccc1=O (centres unmarked) [CBK305886] | 87.3 |
| CCN1CCN(c2ccc(NC(=O)Cc3cn4ccsc4n3)cc2)CC1 [CBK305892] | 81.3 |
| CC1CCc2c(sc3ncnc(OCC(=O)NC4CCCC4)c23)C1 (centres unmarked) [CBK305893] | 83.1 |
| Cc1cc(OCC(=O)N2CCN(c3ccccc3F)CC2)no1 [CBK305898] | 87.1 |
| Cc1cc(NC(=O)N2CCN(c3ncccc3C#N)CC2)no1 [CBK305901] | 80.5 |
| Cc1nc(NC(=O)CN2CCN(c3cccc(Cl)c3)CC2)sc1C [CBK305902] | 88.5 |
